Activity calls are given as the source filed them. The rule behind the calls is not given here.
What was measured:
[1] = Toxicity in C57 mouse xenografted with mouse B16-F10 cells assessed as body weight change at 7 mg/kg, ip qd for 12 days; type: organism-based; settings: in vivo, 288 h, time 12 day
B16-F10 [2] = assay: Antitumor activity against mouse B16-F10 cells xenografted in C57 mouse assessed as suppression of tumor growth at 7 mg/kg, ip qd for 12 days; type: functional, organism-based; settings: time 12.0 day
B16-F10 [3] = assay: Antitumor activity against mouse B16-F10 cells xenografted in C57 mouse at 7 mg/kg, ip qd for 12 days relative to control; type: functional; settings: B16-F10, 288 h, time 12 day, read-out: TGI
HCT-116 = assay: Antiproliferative activity against human HCT-116 cells incubated for 48 hrs by MTT assay; type: functional, cell-based; settings: HCT-116, 48 h
B16-F10 [4] = assay: Antiproliferative activity against mouse B16-F10 cells incubated for 48 hrs by MTT assay; type: functional, cell-based; settings: B16-F10, 48 h
NCI-H23 = assay: Antiproliferative activity against human NCI-H23 cells incubated for 48 hrs by MTT assay; type: functional, cell-based; settings: NCI-H23, 48 h
HeLa = assay: Antiproliferative activity against human HeLa cells incubated for 48 hrs by MTT assay; type: functional, cell-based
HepG2 = assay: Antiproliferative activity against human HepG2 cells incubated for 48 hrs by MTT assay; type: functional, cell-based; settings: HepG2, 48 h
MCF7 = assay: Antiproliferative activity against human MCF7 cells incubated for 48 hrs by MTT assay; type: functional, cell-based; settings: MCF7, 48 h

| Structure (SMILES) | IC50 (HCT-116) [nM] | IC50 (B16-F10 [4]) [nM] | IC50 (NCI-H23) [nM] | IC50 (HeLa) [nM] | IC50 (HepG2) [nM] | IC50 (MCF7) [nM] | Activity [1] | Activity (B16-F10 [2]) | inhibition in vivo at 7 mg/kg (B16-F10 [3]) [%] |
| --- | --- | --- | --- | --- | --- | --- | --- | --- | --- |
| Cc1c(COc2cc(OCc3cccc(C#N)c3)c(CNC(C)(C)C(=O)O)cc2Cl)cccc1-c1ccccc1 |  |  |  |  |  |  | Non-Toxic | Active | 43.9 |
| COc1cc2c(c(OC)c1OC)-c1ccc(OC)c(=O)cc1[C@@H](NC(C)=O)CC2 [COLCHICINE] | 9.37 | 18.8 | 3.1 | 9.35 | 5 |  |  |  |  |
| COc1cc(OC)cc(N(C)c2nc(C)nc3ccsc23)c1 | > 100 | > 100 | > 100 | > 100 | > 100 | > 100 |  |  |  |
| Cc1nc(N(C)c2ccc(C(F)(F)F)cc2)c2sccc2n1 | > 100 | > 100 | > 100 | > 100 | > 100 | > 100 |  |  |  |
| Cc1nc(N(C)c2ccc(C(C)C)cc2)c2sccc2n1 | > 100 | > 100 | > 100 | > 100 | > 100 | > 100 |  |  |  |
| COc1ccccc1N(C)c1nc(C)nc2ccsc12 | > 100 | > 100 | > 100 | > 100 | > 100 | > 100 |  |  |  |
| COc1cc(N(C)c2nc(C)nc3ccsc23)cc(OC)c1OC | > 100 | > 100 | > 100 | > 100 | > 100 | > 100 |  |  |  |
| Cc1ccc(N(C)c2nc(C)nc3ccsc23)cc1 | > 100 | > 100 | > 100 | > 100 | > 100 | > 100 |  |  |  |
| Cc1nc(N(C)c2ccccc2C)c2sccc2n1 | > 100 | > 100 | > 100 | > 100 | > 100 | > 100 |  |  |  |
| Cc1nc(N(C)c2cccc3ccccc23)c2sccc2n1 | > 100 | > 100 | > 100 | > 100 | > 100 | > 100 |  |  |  |
| Cc1nc(N(C)c2ccc(OC(C)C)cc2)c2sccc2n1 | > 100 | > 100 | > 100 | > 100 | > 100 | > 100 |  |  |  |
| CN(c1ccc2c(ccn2C)c1)c1ncnc2ccsc12 | > 100 | > 100 | > 100 | > 100 | > 100 | > 100 |  |  |  |

Now from value to compound, other results behind:

| IC50 (HCT-116) [nM] | IC50 (B16-F10 [4]) [nM] | IC50 (NCI-H23) [nM] | IC50 (HeLa) [nM] | IC50 (HepG2) [nM] | IC50 (MCF7) [nM] | Structure (SMILES) | Activity [1] | Activity (B16-F10 [2]) | inhibition in vivo at 7 mg/kg (B16-F10 [3]) [%] |
| --- | --- | --- | --- | --- | --- | --- | --- | --- | --- |
| > 100 | > 100 | > 100 | > 100 | > 100 | > 100 | COc1ccc(N(C)c2nc(C)nc3ccsc23)cc1C(F)(F)F |  |  |  |
| > 100 | > 100 | > 100 | > 100 | > 100 | > 100 | Cc1nc(N(C)c2ccc(Cl)c(Cl)c2)c2sccc2n1 |  |  |  |
| > 100 | > 100 | > 100 | > 100 | > 100 | > 100 | Cc1nc(N(C)c2cccc(C(F)(F)F)c2)c2sccc2n1 |  |  |  |
| > 100 | > 100 | > 100 | > 100 | > 100 | > 100 | COc1cccc(N(C)c2nc(C)nc3ccsc23)c1 |  |  |  |
| 0.58 | 15.6 | 18.8 | 9 | 18 | 20 | Cc1nc(N(C)c2ccc3ccccc3c2)c2sccc2n1 |  |  |  |
| > 100 | > 100 | > 100 | > 100 | > 100 | > 100 | Cc1cccc(N(C)c2nc(C)nc3ccsc23)c1 |  |  |  |
| > 100 | > 100 | > 100 | > 100 | > 100 | > 100 | Cc1nc(N(C)c2cccc(OC(F)(F)F)c2)c2sccc2n1 |  |  |  |
| > 100 | > 100 | > 100 | > 100 | > 100 | > 100 | Cc1nc(N(C)c2cc(Cl)cc(Cl)c2)c2sccc2n1 |  |  |  |
| > 100 | > 100 | > 100 | > 100 | > 100 | > 100 | COc1ccc(N(C)c2nc(C)nc3ccsc23)cc1OC |  |  |  |
| 3.12 | 30 | 9.37 | 18.8 | 18.8 | 1.4 | COc1ccc(N(C)c2nc(C)nc3ccsc23)cc1 |  |  |  |
| 1.56 | 6.25 | 18.8 | 20 | 18.5 | 4.68 | COc1ccc(N(C)c2nc(C)nc3ccsc23)cc1[N+](=O)[O-] |  |  |  |

— ChEMBL document CHEMBL5614416, “Discovery of novel thiophene[3,2-d]pyrimidine-based tubulin inhibitors with enhanced antitumor efficacy for combined use with anti-pd-l1 immunotherapy in melanoma” (Eur J Med Chem, 2024)
